Patent US9163040B2, “Substituted bisphenyl butanoic phosphonic acid derivatives as NEP inhibitors” (NOVARTIS AG, priority 2013, dated 2015)

How the values were obtained:
[1] = system: Aβ(1-40) peptide concentrations in cerebrospinal fluid; test: Aβ model: CSF Aβ after oral dosing, related to plasma ANP increase by exposure-response regression; assay type: in vivo, rat; conditions: rats, p.o.; for CSF Aβ (% vehicle control): 5 hr post-dosing; for fold higher % increases in CSF Aβ compared with Example 1: plasma ANP 200 to 240% of baseline
Experimental: The relative CNS and peripheral therapeutic activities of NEP inhibitors were evaluated in two nonclinical animal models. Compounds or their vehicle were administered orally to conscious rats, and either the increase in Aβ(1-40) peptide concentrations in cerebrospinal fluid (CSF; “Aβ model”) or the increase in plasma levels of the NEP substrate, atrial natriuretic peptide (ANP; “ANP potentiation model”) were determined. Thus, NEP inhibitors that elicit no or small increases in CSF Aβ at a given increase in plasma ANP may have an advantage over ones that trigger large elevations in Aβ.
CNS effects of NEP inhibitors were assessed in a different rat model (“Aβ model”). In this study, we have measured cerebrospinal fluid (CSF) levels of Aβ as a sensitive indicator of CNS Aβ concentrations (Kwasi G. Mawuenyega, 2010, Science, Vol 330, 1774)).
Experiments were conducted in naïve adult, male, WH rats purchased from Charles River Labs (body weights: 495±53 g, mean±SD; age: 8.5-12 months) that were housed and fed as described above. Rats were treated by oral gavage with 1 mL/kg of vehicle (0.5% methylcellulose+0.1% Tween 80) or a selected dose of NEP inhibitor between 7:30 and 10:00 am. Five hours later, rats were anesthetized with isoflurane, a laparotomy was performed, and an abdominal aortic blood sample was obtained on EDTA. Blood samples were centrifuged at 4° C. and 20 K g to separate plasma. Plasma samples were aliquoted and frozen (−70° C.) for later analysis of plasma compound levels. After exsanguination of the rat, the skin and muscle overlying the cisterna magna were retracted. A sample of CSF was collected by direct needle puncture through the exposed dura into the cisterna magna. CSF was transferred to pre-chilled (on ice) low-binding tubes (Protein LoBind tubes, 1.5 mL, Order No. 022431081, Eppendorf) using low-binding pipette tips (VWR Catalog #37001-164) as quickly as possible to minimize Aβ aggregation and adherence to the devices. CSF samples were frozen (−70° C.) for later analysis of Aβ levels
Aβ40 in CSF was quantified using the MesoScale Discovery (MSD, Gaithersburg, Md.) 96-well MULTI-ARRAY Human/Rodent (4G8) Aβ40 Ultra-Sensitive Kit (K110FTE-2). The assay was done according to the manufacturer's instructions except for the standard curve and the sample preparation. A-10 μL aliquot of each CSF sample was mixed with 190 μL 1% BSA/1× Tris solution (“Blocker A” from kit) for a 1:20 CSF dilution. Synthetic Aβ1-40 peptide (from kit) was serially diluted in 1% BSA/1× Tris solution to obtain standards from 10,000-10 pg/mL for an 8-point standard curve.
MSD MULTI-SPOT Aβ40 peptide plates from the kit were incubated for 1 hour after pipetting 150 μL/well 1% BSA/1× Tris solution. The plates were washed 3 times with 400 μL 1× Tris wash buffer (from kit) using a BioTek EL406 automated plate washer (Winooski, Vt.). For CSF samples and standards, 25 μL of a 1×SULFO-TAG 4G8 detection antibody/1× “Blocker G”/1% BSA/1× Tris solution (“detection antibody solution” from kit) was pipetted into the plate. CSF samples and standards were pipetted at 25 μL/well into the plates immediately following detection antibody solution additions. The plates were incubated for 2 hours and washed 3 times with 400 μL 1× Tris wash buffer using the EL406 automated plate washer. “Read buffer T” (from kit), 1×150 μL/well, was pipetted into the plates. The MSD plates were read immediately on the MSD SECTOR Imager 6000 reader.
Standards were assayed in triplicate. CSF samples were assayed in duplicate. Curve fitting, back-calculation, % recovery, and interpolation of sample concentrations were performed using MSD DISCOVERY WORKBENCH Data Analysis Tools 3.0 Software. Signal generated by the standards was plotted and fit using the 4-parameter logistical curve fitting option with a 1/y^2 weighting function. Sample pg/mL concentrations were interpolated from the fit curve. […]

[2] = biological target: recombinant human neutral endopeptidase (Homo sapiens (Human), UniProt P08473); test: in vitro inhibition of recombinant human neutral endopeptidase (fluorescence lifetime assay); assay type: biochemical; conditions: 1 hour pre-incubation, read after 1 hour at room temperature, pH 7.4; read-out: Human NEP IC50
Sequence of recombinant human neutral endopeptidase (P08473 whole entry): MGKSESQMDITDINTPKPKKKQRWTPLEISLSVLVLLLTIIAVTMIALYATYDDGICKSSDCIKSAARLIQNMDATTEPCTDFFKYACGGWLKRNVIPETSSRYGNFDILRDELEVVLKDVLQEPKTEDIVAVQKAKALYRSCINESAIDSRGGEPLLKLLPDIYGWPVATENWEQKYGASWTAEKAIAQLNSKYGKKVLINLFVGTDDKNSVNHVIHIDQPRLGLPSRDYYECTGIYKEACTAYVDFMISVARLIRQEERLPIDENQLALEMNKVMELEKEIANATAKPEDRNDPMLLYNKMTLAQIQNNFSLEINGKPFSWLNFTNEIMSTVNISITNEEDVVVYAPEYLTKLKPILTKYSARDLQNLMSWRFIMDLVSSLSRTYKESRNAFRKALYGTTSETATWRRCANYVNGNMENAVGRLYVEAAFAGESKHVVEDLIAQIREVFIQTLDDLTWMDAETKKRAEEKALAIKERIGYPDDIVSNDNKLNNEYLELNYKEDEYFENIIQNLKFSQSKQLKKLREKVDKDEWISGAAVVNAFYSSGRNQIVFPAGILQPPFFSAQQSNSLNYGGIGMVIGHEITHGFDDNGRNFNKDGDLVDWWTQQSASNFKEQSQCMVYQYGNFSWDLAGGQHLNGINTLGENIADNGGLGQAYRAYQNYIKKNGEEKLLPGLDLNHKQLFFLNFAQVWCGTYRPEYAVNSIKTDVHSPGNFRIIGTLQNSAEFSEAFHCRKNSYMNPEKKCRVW
Text: The activity of a compound according to the present invention can be assessed by the following in vitro and in vivo methods and/or by the following in vitro and in vivo methods well-described in the art. See Doering K, Meder G, Hinnenberger M, Woelcke J, Mayr L M, Hassiepen U, (2009) “A fluorescence lifetime-based assay for protease inhibitor profiling on human kallikrein 7”, Biomol Screen, January; 14(1):1-9.
In particular, the in vitro inhibition of recombinant human neutral endopeptidase can be determined as follows:
Recombinant human neutral endopeptidase (expressed in insect cells and purified using standard methods, final concentration 7 pM) is pre-incubated with test compounds at various concentrations for 1 hour at room temperature in 10 mM sodium phosphate buffer at pH 7.4, containing 150 mM NaCl and 0.05% (w/v) CHAPS. The enzymatic reaction is started by the addition of a synthetic peptide substrate Cys(PT14)-Arg-Arg-Leu-Trp-OH to a final concentration of 0.7 μM. Substrate hydrolysis leads to an increase in fluorescence lifetime (FLT) of PT14 measured by means of a FLT reader as described by Doering et al. (2009) as referenced supra. The effect of the compound on the enzymatic activity was determined after 1 hour (t=60 min) incubation at room temperature. […]

[3] = at plasma compound concentration corresponding to plasma ANP 200 % baseline
[4] = at plasma compound concentration corresponding to plasma ANP 210 % baseline
[5] = at plasma compound concentration corresponding to plasma ANP 220 % baseline
[6] = at plasma compound concentration corresponding to plasma ANP 230 % baseline
[7] = at plasma compound concentration corresponding to plasma ANP 240 % baseline

Row | SMILES | CSF Aβ (% vehicle control) [1, 3] | CSF Aβ (% vehicle control) [1, 4] | CSF Aβ (% vehicle control) [1, 5] | CSF Aβ (% vehicle control) [1, 6] | CSF Aβ (% vehicle control) [1, 7] | fold higher % increases in CSF Aβ compared with Example 1 [1] | IC50 [2]
1 | CCOC(=O)C[C@@H](Cc1ccc(-c2cccc(Cl)c2)cc1)NC(=O)CCC(=O)O [Example 1-2 (WO2010/136493)] | 225 % vehicle control | 242 % vehicle control | 260 % vehicle control | 211 % vehicle control | 295 % vehicle control | 5- to 9 fold | 
2 | CCOC(=O)C[C@@H](Cc1ccc(-c2cc(Cl)ccc2F)cc1)NC(=O)CCC(=O)O [Example 1-17 (WO2010/136493)] | 156 % vehicle control | 179 % vehicle control | 202 % vehicle control | 225 % vehicle control | 248 % vehicle control | 4 fold | 
3 | CC(OC(=O)C[C@@H](Cc1ccc(-c2cc(Cl)ccc2F)cc1)NC(=O)CCP(=O)(O)O)OC(=O)OC1CCCCC1 (stereo partly drawn) [Example 1] | 114 % vehicle control | 120 % vehicle control | 126 % vehicle control | 132 % vehicle control | 139 % vehicle control |  | 
4 | O=C(O)C[C@@H](Cc1ccc(-c2cc(Cl)ccc2F)cc1)NC(=O)CCP(=O)(O)O [Example 2, (R)-4-(5′-chloro-2′-fluoro-[1,1′-biphenyl]-4-yl)-3-(3-phosphonopropanamido)butanoic acid] |  |  |  |  |  |  | 0.11 nM
